Literature values, collected in patent US8076148B2, “Cytochrome c protein and assay” (GE Healthcare UK Limited, priority 2003, dated 2011).

Key:
[1] = system: rat pheochromocytoma-6 (PC6) cells; details: PC6 cells expressing rat cytochrome c-GFP
[2] = system: caspase-9; details: in vitro
[3] = molecular target: T1, Apaf-1 (Homo sapiens, UniProt O14727); details: in vitro
T1 sequence (O14727 1-1248): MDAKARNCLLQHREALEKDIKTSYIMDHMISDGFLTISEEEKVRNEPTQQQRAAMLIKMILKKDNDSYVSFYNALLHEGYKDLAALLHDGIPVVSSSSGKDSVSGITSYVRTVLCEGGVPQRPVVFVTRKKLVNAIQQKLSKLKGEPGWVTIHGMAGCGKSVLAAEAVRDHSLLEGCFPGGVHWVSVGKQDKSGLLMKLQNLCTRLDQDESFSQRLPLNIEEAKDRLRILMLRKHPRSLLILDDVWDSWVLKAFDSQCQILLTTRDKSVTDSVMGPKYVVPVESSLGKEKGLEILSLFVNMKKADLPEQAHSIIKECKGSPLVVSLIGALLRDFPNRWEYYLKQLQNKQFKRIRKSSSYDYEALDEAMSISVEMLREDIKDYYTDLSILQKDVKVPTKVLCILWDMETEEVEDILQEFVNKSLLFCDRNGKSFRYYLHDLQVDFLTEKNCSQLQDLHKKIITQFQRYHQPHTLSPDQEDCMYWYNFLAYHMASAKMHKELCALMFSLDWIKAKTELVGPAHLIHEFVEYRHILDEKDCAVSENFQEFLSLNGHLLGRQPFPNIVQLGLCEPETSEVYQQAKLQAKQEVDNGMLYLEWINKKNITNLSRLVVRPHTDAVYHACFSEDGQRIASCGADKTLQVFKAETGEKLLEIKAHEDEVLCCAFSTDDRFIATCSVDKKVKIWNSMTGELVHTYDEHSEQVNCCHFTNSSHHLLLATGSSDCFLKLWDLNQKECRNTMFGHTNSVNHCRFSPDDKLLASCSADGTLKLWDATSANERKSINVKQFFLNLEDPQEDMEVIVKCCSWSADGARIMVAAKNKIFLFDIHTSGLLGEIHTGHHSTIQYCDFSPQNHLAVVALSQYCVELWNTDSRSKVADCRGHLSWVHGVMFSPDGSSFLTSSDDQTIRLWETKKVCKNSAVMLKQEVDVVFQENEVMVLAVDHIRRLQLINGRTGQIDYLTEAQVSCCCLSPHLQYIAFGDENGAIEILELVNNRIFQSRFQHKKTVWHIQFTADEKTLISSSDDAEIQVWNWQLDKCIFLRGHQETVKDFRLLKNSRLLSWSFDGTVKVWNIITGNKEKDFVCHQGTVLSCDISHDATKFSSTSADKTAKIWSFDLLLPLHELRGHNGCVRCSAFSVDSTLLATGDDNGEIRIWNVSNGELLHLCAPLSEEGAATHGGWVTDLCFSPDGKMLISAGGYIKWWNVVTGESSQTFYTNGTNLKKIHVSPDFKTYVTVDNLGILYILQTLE

Row | Compound | release of cytochrome c-GFP fusion from the mitochondria [1] | caspase activation [2] | binding to Apaf-1 [3]
1 | CN[C@@H]1C[C@H]2O[C@@](C)([C@@H]1OC)n1c3ccccc3c3c4c(c5c6ccccc6n2c5c31)C(=O)NC4 [staurosporine] | led to release of the fusion from the mitochondria | – | –
2 | Horse cytochrome c: horse wild type cytochrome c, highly homologous to human cytochrome c | – | can initiate caspase activation | –
3 | K72A: cytochrome c mutant, lysine 72 to alanine, from the literature in vitro studies (Kluck et al.; Yu et al.) | – | no detectable binding or caspase-9 activation | no detectable binding
4 | yeast cytochrome c: yeast wild type cytochrome c | – | nor activate caspase | did not measurably bind
